Source: ChEMBL document CHEMBL4017474, “A calcineurin antifungal strategy with analogs of FK506” (Bioorg Med Chem Lett, 2017)
pIC50: −log10 of the molar value. Active and inactive are the calls of the source. The calls are words filed in the database; no cut-off is given here.

Tests used:
[1] = target: T1, Peptidyl-prolyl cis-trans isomerase FKBP1A (Homo sapiens, UniProt P62942); assay: Antagonist activity at human FKBP12 measured after 30 mins by fluorescein labelled SLF tracer based fluorescence polarization assay
T1 sequence (P62942 whole entry): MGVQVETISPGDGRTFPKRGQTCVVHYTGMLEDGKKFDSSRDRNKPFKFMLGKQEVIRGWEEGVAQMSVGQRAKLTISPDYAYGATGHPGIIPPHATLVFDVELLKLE

[2] = target: T1, Peptidyl-prolyl cis-trans isomerase FKBP1A; assay: (§1) Antagonist activity at recombinant human N-terminal His6-tagged FKBP12 expressed in Escherichia coli assessed as inhibition of FKBP12 binding to calcineurin at 5 uL using […] pretreated for 1 hr followed by substrate addition measured after 1 hr by biomol green dye based spectrophotometric method
[3] = target: T1, Peptidyl-prolyl cis-trans isomerase FKBP1A; assay: as §1, with “of FK506 mediated” for “of”, “calcineurin” for “calcineurin at 5 uL”
Jurkat = assay: Immunosuppressive activity in PMA/ionomycin stimulated human Jurkat T cells assessed as suppression of IL2 production pretreated for 15 to 30 mins followed by PMA/ionomycin addition measured after 18 to 20 hrs by ELISA; format: cell-based
PBMC [4] = assay: Reversal of FK506-induced inhibition of cell proliferation in concanavalin A stimulated human PBMC at 1 uM measured after 72 hrs by CellTiter-Glo assay relative to control; format: functional; set-up: scale not given: the % may be the effect or the level left
PBMC [5] = assay: Antiproliferative activity against concanavalin A stimulated human PBMC at 1 to 2 ug/ml measured after 72 hrs by CellTiter-Glo assay; format: cell-based
Aspergillus fumigatus [6] = assay: Antifungal activity against Aspergillus fumigatus assessed as spore germination at 12.5 ug/ml measured after 48 hrs in presence of FK506 by broth dilution method relative to control; format: functional
Aspergillus fumigatus [7] = assay: Antifungal activity against Aspergillus fumigatus up to 25 ug/ml measured after 48 hrs by broth dilution method; format: functional
HepG2 = assay: Cytotoxicity against human HepG2 cells; format: cell-based
Vero 76 = assay: Cytotoxicity against African green monkey Vero 76 cells; format: cell-based; conditions: Chlorocebus sabaeus
PBMC [8] = assay: Reversal of FK506-induced inhibition of cell proliferation in concanavalin A stimulated human PBMC at 0.1 uM measured after 72 hrs by CellTiter-Glo assay; format: functional, cell-based
Aspergillus fumigatus [9] = assay: Antifungal activity against Aspergillus fumigatus assessed as spore germination at 6.25 to 25 ug/ml measured after 48 hrs in presence of FK506 by broth dilution method; format: functional
[10] = Clearance in mouse at 3 mg/kg, iv; format: ADME, organism-based; conditions: in vivo
[11] = Volume of distribution at steady state in mouse at 3 mg/kg, iv; format: ADME, organism-based; conditions: in vivo, read-out: Vdss
[12] = Terminal half-life in mouse at 3 mg/kg, iv; format: ADME, organism-based; conditions: in vivo, read-out: beta t1/2 (converted)
[13] = AUClast in mouse at 3 mg/kg, iv; format: ADME, organism-based; set-up: dose 3 mg/kg, time 0 - last, route intravenous; conditions: in vivo
[14] = Antagonist activity at Aspergillus fumigatus FKBP12 measured after 30 mins by fluorescein labelled SLF tracer based fluorescence polarization assay
[15] = Tmax in mouse at 10 mg/kg, po; format: ADME, organism-based; conditions: in vivo
[16] = Cmax in mouse at 10 mg/kg, po; format: ADME, organism-based; set-up: dose 10 mg/kg, route oral; conditions: in vivo
[17] = AUClast in mouse at 10 mg/kg, po; format: ADME, organism-based; set-up: dose 10 mg/kg, time 0 - last, route oral; conditions: in vivo

pIC50 [1] | inhibition [2] | pIC50 [3] | pIC50 (Jurkat) | clearance [10] [mL/min/kg] | Vd [11] [L/kg] | half-life [12] [min] | AUC(0-t) [13] [ng·h/mL] | pIC50 [14] | Tmax [15] [min] | Cmax [16] [ng/mL] | AUC(0-t) [17] [ng·h/mL] | SMILES | Activity (PBMC [4]) [%] | Activity (PBMC [5]) | Activity (Aspergillus fumigatus [6]) | Activity (Aspergillus fumigatus [7]) | pIC50 (HepG2) | pIC50 (Vero 76) | Activity (PBMC [8]) | Activity (Aspergillus fumigatus [9])
7.90 | inactive | 5.74 | < 5.00 |  |  |  |  |  |  |  |  | CO[C@H]1C[C@@H](C)C/C(C)=C/[C@@H](/C=C/CCCC(=O)N2CCNCC2)C(=O)C[C@H](O)[C@@H](C)[C@@H](/C(C)=C/[C@@H]2CC[C@@H](O)[C@H](OC)C2)OC(=O)[C@@H]2CCCCN2C(=O)C(=O)[C@]2(O)O[C@H]1[C@@H](OC)C[C@H]2C | 27.5 | Non-Toxic | 36.5% | inactive | < 4.00 | < 4.00 |  | 
7.84 | inactive | 6.07 | < 5.00 |  |  |  |  |  |  |  |  | CO[C@H]1C[C@@H](C)C/C(C)=C/[C@@H](CCCC(=O)NCCc2ccccn2)C(=O)C[C@H](O)[C@@H](C)[C@@H](/C(C)=C/[C@@H]2CC[C@@H](O)[C@H](OC)C2)OC(=O)[C@@H]2CCCCN2C(=O)C(=O)[C@]2(O)O[C@H]1[C@@H](OC)C[C@H]2C | 36.6 | Non-Toxic | 31% | inactive | < 4.00 | < 4.00 |  | 
7.90 | inactive | 5.95 | < 5.00 |  |  |  |  |  |  |  |  | CO[C@H]1C[C@@H](C)C/C(C)=C/[C@@H](CCCC(=O)N2CC(O)C2)C(=O)C[C@H](O)[C@@H](C)[C@@H](/C(C)=C/[C@@H]2CC[C@@H](O)[C@H](OC)C2)OC(=O)[C@@H]2CCCCN2C(=O)C(=O)[C@]2(O)O[C@H]1[C@@H](OC)C[C@H]2C | 49.9 | Non-Toxic | 24% | inactive | < 4.00 | < 4.00 |  | 
7.96 | inactive | 5.76 | < 5.00 |  |  |  |  |  |  |  |  | CC[C@@H]1/C=C(\C)C[C@H](C)C[C@H](OC)[C@H]2O[C@@](O)(C(=O)C(=O)N3CCCC[C@H]3C(=O)O[C@H](/C(C)=C/[C@@H]3CC[C@@H](OC(=O)N4CCN(C)CC4)[C@H](OC)C3)[C@H](C)[C@@H](O)CC1=O)[C@H](C)C[C@@H]2OC | 79.8 | Non-Toxic | 68% | inactive | < 4.00 | < 4.00 |  | 
7.95 | inactive | 5.89 | < 5.00 |  |  |  |  |  |  |  |  | CO[C@H]1C[C@@H](C)C/C(C)=C/[C@@H](CCCC(=O)N2CCN(Cc3ccccn3)CC2)C(=O)C[C@H](O)[C@@H](C)[C@@H](/C(C)=C/[C@@H]2CC[C@@H](O)[C@H](OC)C2)OC(=O)[C@@H]2CCCCN2C(=O)C(=O)[C@]2(O)O[C@H]1[C@@H](OC)C[C@H]2C | 88.3 | Non-Toxic | 47.4% | inactive | < 4.00 | < 4.00 |  | 
7.72 | inactive |  | < 5.00 |  |  |  |  |  |  |  |  | CO[C@H]1C[C@@H](C)C/C(C)=C/[C@@H](CCN(C)C)C(=O)C[C@H](O)[C@@H](C)[C@@H](/C(C)=C/[C@@H]2CC[C@@H](O)[C@H](OC)C2)OC(=O)[C@@H]2CCCCN2C(=O)C(=O)[C@]2(O)O[C@H]1[C@@H](OC)C[C@H]2C | 105.6 | Non-Toxic | 54.3% | inactive | < 4.00 | < 4.00 |  | 
7.72 | inactive |  | < 5.00 |  |  |  |  |  |  |  |  | CO[C@H]1C[C@@H](C)C/C(C)=C/[C@@H](CCCC(=O)N2CCN(C)CC2)C(=O)C[C@H](O)[C@@H](C)[C@@H](/C(C)=C/[C@@H]2CC[C@@H](OCCO)[C@H](OC)C2)OC(=O)[C@@H]2CCCCN2C(=O)C(=O)[C@]2(O)O[C@H]1[C@@H](OC)C[C@H]2C | 67.8 | Non-Toxic | 24 - 42% | inactive | < 4.00 | < 4.00 | inactive | Active
7.66 | inactive |  | < 5.00 | 22.8 | 1.01 | 42.8 | 2140 |  |  |  |  | CO[C@H]1C[C@@H](C)C/C(C)=C/[C@@H](CC(=O)N2CCCC2)C(=O)C[C@H](O)[C@@H](C)[C@@H](/C(C)=C/[C@@H]2CC[C@@H](O)[C@H](OC)C2)OC(=O)[C@@H]2CCCCN2C(=O)C(=O)[C@]2(O)O[C@H]1[C@@H](OC)C[C@H]2C |  | Non-Toxic | 90.5% | inactive | < 4.00 | < 4.00 |  | 
7.87 | inactive | 6.00 | < 5.00 |  |  |  |  | 7.65 |  |  |  | CO[C@H]1C[C@@H](C)C/C(C)=C/[C@@H](CCCC(=O)N(CCO)CCO)C(=O)C[C@H](O)[C@@H](C)[C@@H](/C(C)=C/[C@@H]2CC[C@@H](O)[C@H](OC)C2)OC(=O)[C@@H]2CCCCN2C(=O)C(=O)[C@]2(O)O[C@H]1[C@@H](OC)C[C@H]2C | 36.2 | Non-Toxic | 35.7% | inactive | < 4.00 | < 4.00 |  | 
8.17 | inactive | 5.88 | < 5.00 | 60.8 | 2.58 | 66.6 | 787 | 7.73 | 15 | 184 | 208 | CC[C@@H]1/C=C(\C)C(O)[C@H](C)C[C@H](OC)[C@H]2O[C@@](O)(C(=O)C(=O)N3CCCC[C@H]3C(=O)O[C@H](/C(C)=C/[C@@H]3CC[C@@H](O)[C@H](OC)C3)[C@H](C)[C@@H](O)CC1=O)[C@H](C)C[C@@H]2OC (some centres undefined) | 78.7 | Non-Toxic | 83 - 86.8% | inactive | < 4.00 | < 4.00 | inactive | inactive
8.02 | inactive | 5.97 | < 5.00 |  |  |  |  | 7.89 |  |  |  | CO[C@H]1C[C@@H](C)C/C(C)=C/[C@@H](CCCC(=O)N2CC(N3CCOCC3)C2)C(=O)C[C@H](O)[C@@H](C)[C@@H](/C(C)=C/[C@@H]2CC[C@@H](O)[C@H](OC)C2)OC(=O)[C@@H]2CCCCN2C(=O)C(=O)[C@]2(O)O[C@H]1[C@@H](OC)C[C@H]2C | 49.3 | Non-Toxic | 49.6% | inactive | < 4.00 | < 4.00 |  | 
7.94 | inactive | 6.08 | < 5.00 |  |  |  |  |  |  |  |  | CO[C@H]1C[C@@H](C)C/C(C)=C/[C@@H](CCCC(=O)NCCN2CCOCC2)C(=O)C[C@H](O)[C@@H](C)[C@@H](/C(C)=C/[C@@H]2CC[C@@H](O)[C@H](OC)C2)OC(=O)[C@@H]2CCCCN2C(=O)C(=O)[C@]2(O)O[C@H]1[C@@H](OC)C[C@H]2C | 45.9 | Non-Toxic | 39.7% | inactive | < 4.00 | < 4.00 |  | 
